Source: US8017318B1, “Method for detecting and/or quantifying a known function from a nucleic acid sample” (priority 1998, dated 2011)

Target: T1, β-lactamase TEM-1 (Escherichia coli, UniProt P62593)
T1 construct: made in house; host or cells: cell-free in vitro translation as described by Zubay (microbial system)
Assay: "resistance to clavulanic acid" beta-lactamase activity test with nitrocephine on in vitro translated enzyme
Type: biochemical
Details: sample 1 (100% germs resistant to antibiotics only, 0% double resistance); 1 μl clavulanic acid, 3 minutes at 25° C., then nitrocephine; 486 nm
Description: 10 μl of culture at DO600.2.3 were centrifuged and each pellet was resuspended into 12 μl of cellular lysis buffer (10 mM Tris HCl pH 7.5, 1 mM EDTA, 50 μg/ml proteinase K) and incubated 15 minutes at 55° C. then 15 minutes at 80° C. 9 μl of each of these lysates was added to a PCR amplification mixture that permitted amplification of the gene conferring monoresistance and of the gene conferring polyresistance, as well as of the sequences permitting their in vitro expression. 5 μl of each PCR amplification were used to carry out an in vitro transcription as described by Gurevich et al. (Gurevich V. A., Pokrovskaya I. D., Obukhova T. A. and Zozulya S., 1991, Preparative in vitro mRNA synthesis using SP6 and T7 polymerases, Anal. Biochem., 195, 207-213) 10 μl of each transcription was used to translate in vitro the proteins as described by Zubay (Zubay G., 1973, In vitro synthesis of protein in microbial systems, Ann. Rev. Genet., 7, 267-287) to a final volume of 100 μl
Two types of activity tests were carried out: • A measurement of the “total” beta-lactamase activity by using as substrate a chromogenic antibiotic: nitrocephine. […] The reaction was followed by monitoring absorbance changes at 486 nm. • A measurement of the “resistance to clavulanic acid” activity by using as substrate a chromogenic antibiotic: nitrocephine and a given concentration of clavulanic acid. […]

T1 sequence (P62593 24-286 limits assumed): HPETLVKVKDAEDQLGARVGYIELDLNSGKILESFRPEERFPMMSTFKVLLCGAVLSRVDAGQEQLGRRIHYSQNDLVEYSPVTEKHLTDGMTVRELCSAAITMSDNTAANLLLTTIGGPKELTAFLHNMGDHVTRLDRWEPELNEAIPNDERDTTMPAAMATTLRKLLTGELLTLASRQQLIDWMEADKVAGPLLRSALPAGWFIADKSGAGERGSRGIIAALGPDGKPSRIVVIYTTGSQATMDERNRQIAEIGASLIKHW

O=C(O)[C@H]1/C(=C/CO)O[C@@H]2CC(=O)N21 [clavulanic acid]
beta-lactamase activity detected in the presence of clavulanic acid: no activity is detected
